In data set [1] the test system is cancerous and tumorous cells. The experiment in a line: tests of carcinostatic effect (several tests including a biological test). The conditions noted are these: high dose sometimes leads to less effect than a low dose. The text has this: The present invention relates to carcinostatic compounds and compositions and a process for producing the same chiefly containing 5-fluorouracil derivatives (hereinafter referred to as 5-FU). 5-FU and its various derivatives are known to act as carcinostatic agents which disrupt cancerous cells or depress the multiplication thereof. […] That is to say, in spite of the fact that a remarkable carcinostatic effect was achnowledged using a low dose, a high dose sometimes leads to less carcinostatic effects than a low dose. […] In general, it can be easily presumed that these acylated 5-FU compounds, having the substituent group of NH, are to be obtained in acylation with the reagents represented by the general formula such as RCOX, wherein R represents an acyl group and X is halogen and (RCO)2 O, wherein R is an acyl group. However, 3-N-acyl-5-FU cannot be obtained directly from 5-FU because the acylation will preferably occur at the 1-position of 5-FU when 5-FU is reacted with the reagents under normal conditions. […]
In addition, the composition has many other advantageous features, e.g., only a low dose is necessary to be effective so that harmful side-effects are avoided as regards the normal cells. […] Furthermore, it is believed that the 5-FU ring is readily incorporated into RNA as a substituent for uracil. […]

The test system of a further data set is Sarcoma 180. The data set is described as follows: Carcinostatic effect against Sarcoma 180 of a mouse, and toxicity (Example 5). The conditions noted are these: for toxicity: general debility, decrease in weight and napping; for ratio of tumor in wt.: seven days, Control 1.00. The data set is classed as in vivo. As for the experimental part:
Mice were separated into 7 groups of 10 mice. Sarcoma 180, having an initial cell number of 5×10^5, was innoculated hypodermically into each subject. After 24 hours, each composition was given to the subject mouse, except the Control, at the dose as shown in Table 3 for seven (7) consecutive days. On the tenth day from the initial innoculation, each subject was anatomized to examine the tumor weight, the average of which was then compared with that of the Control. Toxicity was also interpreted in view of general debility, decrease in weight and napping. In this test, 3-N-o-toluyl-5-FU was administered orally in the form of powder mixed with water, which was isolated by chromatography from that in oil emulsion.

For the next data set, the system named is mouse foot pad cells. The experiment in a line: side-effects on normal cells, mouse foot pad cells (Example 9). Type of data set: cell-based. The note with it: for MIC: Mus musculus, 72 h, Table 8, normal cells, procedures of Examples 6-8. How it is done:
(§1) Each kind of said cancerous cells, having an initial number of 3×10^4 and 4×10^4 was cultured in a nutrient medium on a slide glass in a flat bottle for 24 hours to make more than one sample, respectively; half for 5-FU and the other for 3-N-o-toluyl-5-FU in oil emulsion. Then 5-FU diluted with water of different concentrations and 3-N-o-toluyl-5-FU in oil emulsion of different concentrations was respectively added to the cells of each of said plate to make several different concentrations of said compounds per unit volume of each cell, and the culture was continued for three days. The manner of the action of each of said compounds against each of the cells at different concentrations (weight per unit volume of cell) was observed by an inverted phase contrast microscope with the passage of time, as well as the multiplication and the change in morphology of the cells were examined by fixing and staining the cells on the slide glass after a period of three days. As a nutrient medium, MEM S10 or HAM-F S10 was employed. HAM-F S10 is a 10% serum supplemented medium described by Richard G. Ham in 1964, and is sold under the tradename "HAM F12 Nissui" in Japan.
(§2) Using the same procedures as in Examples 6-8, it was investigated whether the compound of the invention causes side-effects on normal cells.
(§3) ED50 for normal cells mean that this dose will inhibit the normal propagation of 50% of unattacked cells (that is, it may cause a harmful influence upon normal cells), while MIC for cancerous cells means that this dose will inhibit the multiplication of 100% of cancerous cells. Consequently when MIC of a compound for cancerous cells exceeds ED50 of the same for normal cells, it is considered that this compound must have side-effects.

Experiment in data set [2]: as above
Type of data set: cell-based. The note with it: mouse, foot pad cells; for cytotoxicity: MIC for Ehlrich cancerous cells versus ED50 for normal cells, read-out: normal cells damaged at the minimum dose inhibiting multiplication of the cancerous cells; for CC50 at 72 h: Table 8, normal cells, procedures of Examples 6-8, read-out: ED50. As for the experimental part:
as §1, §2, §3

A further data set concerns Leiomyosarcoma cells. The experiment in a line: growth inhibition of leiomyosarcoma cells in culture (Example 8). The data set is classed as cell-based, human. The note with it: for IC50 / MIC: Homo sapiens, 72 h; for IC50: dose per unit volume effective for 50% of the cells, read-out: ED50 (the source's name).
Excerpt: (§4) Included in Tables 5 through 7 for comparison are carcinostatic effect of 3-N-o-toluyl-5-FU on various kinds of cancerous cells. In these tables, MIC represents minimum inhibitory concentration (γ or microgram/ml) required to inhibit the growth of cancerous cells in a culture medium and ED50 (γ or microgram/ml) represents the dose per unit volume effective for 50% of the cells.
(3) Leiomyosarcoma cells of human.
as §1
(§5) The molecular weight of 5-FU is about 130 and that of 3-N-o-toluyl-5-FU is about 248. […] Accordingly, as used in the following explanations, the terms "weight concentration" refers to the γgm/ml of each compound used in a given test, and the term "molarity" generally refers to the number of molecules of each compound present in a given amount used in a test.

Data set [3] deals with human thyroid cancer cells. The experiment in a line: growth inhibition of human thyroid cancerous cells in culture (Example 7). The data set is classed as cell-based. The conditions noted are these: for IC50 / MIC: Homo sapiens, 72 h; for IC50: dose per unit volume effective for 50% of the cells, read-out: ED50 (the source's name).
Excerpt: as §4
(2) Human thyroid cancerous cells; and
as §1, §5

The test system of a further data set is Ehrich cancerous cells. The data set is described as follows: growth inhibition of Ehrich cancerous cells in culture (Example 6). Type of data set: cell-based, mouse. The note with it: for MIC / IC50: Mus musculus, 72 h; for IC50: Ehrlich, dose per unit volume effective for 50% of the cells, read-out: ED50 (the source's name). How it is done: Cancerous cells employed:
(1) Ehrich cancerous cells of mouse;
Each kind of said cancerous cells, having an initial number of 3×10^4 and 4×10^4 was cultured in a nutrient medium on a slide glass in a flat bottle for 24 hours to make more than one sample, respectively; half for 5-FU and the other for 3-N-o-toluyl-5-FU in oil emulsion. Then 5-FU diluted with water of different concentrations and 3-N-o-toluyl-5-FU in oil emulsion of different concentrations was respectively added to the cells of each of said plate to make several different concentrations of said compounds per unit volume of each cell, and the culture was continued for three days. […] As a nutrient medium, MEM S10 or HAM-F S10 was employed.

Data set [4] relates to AH 130 (tumor cells of liver cancer of a rat). The data set is described as follows: Carcinostatic effect against AH 130 (tumor cells of liver cancer of a rat), and toxicity (Example 5). The data set is classed as in vivo. The conditions noted are these: for ratio of tumor in wt.: seven days, Control 1.00. As for the experimental part:
To further show the advantageous effects of 3-N-o-toluyl-5-FU of the present invention over related compounds known in the art, such as FT-207 and 5-FU, tests were conducted in accordance with the procedures as described below and the results are presented in Tables 3 and 4.
Rats were separated into 7 groups of 10 rats. AH 130, having an initial cell number of 5×10^5, was injected hypodermically into each subject and, after 24 hours, each composition was given to each subject rat at the dose shown in Table 4 for seven (7) consecutive days. On the 10th day from the initial innoculation, each subject was anatomized to examine the tumor weight, the average of which was compared with that of the non-treated Control. In this test, 3-N-o-toluyl-5-FU was also administered orally in the form of powder as in the former test.

The mark [5] stands for this setting: 100 mg/kg daily, total 700 mg/kg.
Setting [6] is: Tables 3 and 4 (Sarcoma 180 mice and AH 130 rats).
Setting [7] is: Table 7, minimum inhibitory concentration, three days, read-out: MIC.
[8] abbreviates: Table 6, minimum inhibitory concentration, three days, read-out: MIC.
[9] abbreviates: Example 9, read-out: MIC for Ehrich cancerous cells.
The mark [10] stands for this setting: Table 5, minimum inhibitory concentration, three days, read-out: MIC.
[11] abbreviates: 30 mg/kg daily, total 210 mg/kg.
Where [12] appears, read: 200 mg/kg daily, total 1400 mg/kg.
The mark [13] stands for this setting: 90 mg/kg daily, total 630 mg/kg.

Consider four compounds from patent publication US4196202A, “Carcinostatic composition containing 3-N-o-toluyl-5-fluorouracil producing the same” (priority 1977, dated 1980).

The structures appear in SMILES notation. Values after ≈ are worked out from the molar mass of the structure shown. Where two headings read alike, the source gives them in different places.

Regarding `Cc1ccccc1C(=O)n1cc(F)c(=O)n(C(=O)c2ccccc2C)c1=O` [1,3-di-N-o-toluyl-5-FU], in data set [1], the “carcinostatic effect, stability of the effect” value is “extremely unstable”.
On to `Cc1ccccc1C(=O)n1c(=O)[nH]cc(F)c1=O` [3-N-o-toluyl-5-FU, 3-N-o-toluyl-5-fluorouracil], for which the toxicity entry with Sarcoma 180 (50 mg/kg daily, total 350 mg/kg) is “-”; in the data set with Sarcoma 180 (setting [5]), “-”; in data set [4] (setting [11]) it was “-”; in data set [4] (setting [5]), “-”. For the same compound, the “ratio of tumor in wt.” value with Sarcoma 180 (50 mg/kg daily, total 350 mg/kg, oral powder mixed with water) amounted to 0.550; in the data set with Sarcoma 180 (setting [5]), 0.367; in data set [4] (setting [11]), 0.84; in data set [4] (100 mg/kg daily, total 700 mg/kg, oral powder), 0.35. In addition, the “toxic side-effects with increasing amount administered” value in the data set on Sarcoma 180 (setting [6]) is “does not produce toxic side-effects”. Moreover, the “side-effects compared with 5-FU” value with mouse foot pad cells (MIC for Ehrich cancerous cells versus ED50 for normal cells) is given as “less side-effects than 5-FU”. The MIC against mouse foot pad cells was found to be 10 µg/mL (≈ 40.3 µM); in the data set on Leiomyosarcoma cells (setting [7]), 1.25 µg/mL (≈ 5.04 µM); in data set [3] (setting [8]), 1.25 µg/mL (≈ 5.04 µM); in the data set with Ehrich cancerous cells (setting [9]), 2 µg/mL (≈ 8.06 µM); in the data set with Ehrich cancerous cells (setting [10]) it was 2 µg/mL (≈ 8.06 µM). In data set [2], the cytotoxicity is under 50%. The CC50 at 72 h in data set [2] turned out to be 2.5 µg/mL (≈ 10.1 µM). Also, the IC50 in the data set with Leiomyosarcoma cells (Table 7, three days) stood at 0.3 µg/mL (≈ 1.21 µM); in data set [3] (Table 6, three days) it was 0.6 µg/mL (≈ 2.42 µM); with Ehrich cancerous cells (Table 5, three days) it was 1 µg/mL (≈ 4.03 µM). The “carcinostatic efficacy compared with 5-FU” value in the data set on Leiomyosarcoma cells (weight concentration, Table 7) was “considerably superior to 5-FU”. In addition, the “dose in weight concentration for carcinostatic effects, compared with 5-FU” value in data set [3] (Table 6) is reported as “less than half the dose in weight concentration than that of 5-FU”. Moreover, in the data set with Ehrich cancerous cells (number of molecules as reference standard), the “number of molecules for ED50 relative to 5-FU” value was “half that of 5-FU”. In addition, the “MIC compared with 5-FU” value in the data set with Ehrich cancerous cells (weight concentration and molarity) was “apparently superior to 5-FU in both weight concentration and molarity”.
In the case of `O=c1[nH]c(=O)n(C2CCCO2)cc1F` (centres unmarked) [FT-207], the toxicity entry with Sarcoma 180 (setting [5]) is reported as “-”; in the data set with Sarcoma 180 (setting [12]), “+”; in data set [4] (setting [13]), “-”; in data set [4] (setting [12]), “+”. Moreover, the “ratio of tumor in wt.” value is 0.516 with Sarcoma 180 (setting [5]), 0.418 in the data set on Sarcoma 180 (setting [12]), 0.60 in data set [4] (setting [13]) and 0.35 in data set [4] (setting [12]). For the same compound, in the data set with Sarcoma 180 (mouse, in vivo), the “toxic side-effects with increasing amount administered” value is reported as “increasing the amount of the compound administered produces toxic results”.
For `O=c1[nH]cc(F)c(=O)[nH]1` [5-FU, 5-fluorouracil], the toxicity result in the data set with Sarcoma 180 (10 mg/kg daily, total 70 mg/kg) is given as “-”; in the data set with Sarcoma 180 (setting [11]), “+”; in data set [4] (10 mg/kg daily, total 70 mg/kg) it was “-”; in data set [4] (setting [11]), “+”. Further, the “ratio of tumor in wt.” value in the data set on Sarcoma 180 (10 mg/kg daily, total 70 mg/kg) is given as 0.840; in the data set on Sarcoma 180 (setting [11]) it was 0.540; in data set [4] (10 mg/kg daily, total 70 mg/kg), 0.72; in data set [4] (setting [11]) it was 0.55. For the same compound, in the data set with Sarcoma 180 (setting [6]), the “toxic side-effects with increasing amount administered” value was “increasing the amount of the compound administered produces toxic results”. The MIC in the data set on mouse foot pad cells is 10 µg/mL (≈ 76.9 µM); with Leiomyosarcoma cells (setting [7]) it was 2.5 µg/mL (≈ 19.2 µM); with Leiomyosarcoma cells (Table 9, read-out: MIC (leiomysarcoma)), 2.5 µg/mL (≈ 19.2 µM); in data set [3] (setting [8]), 2.5 µg/mL (≈ 19.2 µM); in data set [3] (Table 9, read-out: MIC (human thyroid cancerous cells)), 2.5 µg/mL (≈ 19.2 µM); with Ehrich cancerous cells (setting [9]), 2.5 µg/mL (≈ 19.2 µM). Also, the MIC is 2.5 µg/mL (≈ 19.2 µM) in the data set with Ehrich cancerous cells (setting [10]); 2.5 µg/mL (≈ 19.2 µM) in the data set with Ehrich cancerous cells (Table 9 and text, read-out: MIC (Elrich cancerous cells)). Moreover, in data set [2], the cytotoxicity came out at 50%. Moreover, in data set [2], the CC50 at 72 h was 2.5 µg/mL (≈ 19.2 µM). In addition, the IC50 in the data set on Leiomyosarcoma cells (Table 7, three days) is 1.25 µg/mL (≈ 9.61 µM); in data set [3] (Table 6, three days) it was 1.25 µg/mL (≈ 9.61 µM); in the data set on Ehrich cancerous cells (Table 5, three days) it was 1 µg/mL (≈ 7.69 µM).
